Results reported in patent US20260209215A1, “GLYCINE DERIVATIVES WITH P2X4 RECEPTOR-BLOCKING ACTIVITY AS DIAGNOSTICS AND FOR THE TREATMENT OF PAIN, INFLAMMATION, CANCER, AND OTHER P2X4 RECEPTOR-RELATED DISEASES” (RHEINISCHE-FRIEDRICH-WILHELMS-UNIVERSITÄT BONN, priority 2022, published 2026).

Target: T1, P2X4 receptor (Homo sapiens, UniProt Q99571)
T1 construct: expressed in transfected cells; host or cells: 1321N1 astrocytoma cells, retroviral vector pQCXIN, G418 selection, monoclones
T1 sequence (Q99571 1-388): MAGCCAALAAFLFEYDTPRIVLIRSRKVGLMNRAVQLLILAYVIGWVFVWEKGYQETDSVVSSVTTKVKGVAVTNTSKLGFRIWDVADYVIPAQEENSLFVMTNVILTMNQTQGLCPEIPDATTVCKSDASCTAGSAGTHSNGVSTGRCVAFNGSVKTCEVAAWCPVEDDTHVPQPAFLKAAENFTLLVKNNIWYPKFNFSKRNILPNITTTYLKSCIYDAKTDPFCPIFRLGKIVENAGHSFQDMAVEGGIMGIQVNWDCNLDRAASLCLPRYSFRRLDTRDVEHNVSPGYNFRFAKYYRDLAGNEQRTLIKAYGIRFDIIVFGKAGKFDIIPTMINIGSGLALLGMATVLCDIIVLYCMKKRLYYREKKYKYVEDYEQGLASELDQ
Test: Measurement of Ca2+ influx in transfected 1321N1 astrocytoma cells (P2X4 inhibitory potency)
Assay type: cell-based
Conditions: agonist-mediated Ca2+ influx, FLUO-4, 1321N1 astrocytoma cells; antagonists added 30 min before agonist
Description: The rat, mouse, and human P2X4 DNA, respectively, were cloned into the retroviral vector pQCXIN. 1321N1 Astrocytoma cells were transfected with the DNA using a retroviral system as described previously. In brief, GP+envAM12 packaging cells were first transiently co-transfected with a retroviral vector to generate the retrovirus and with a vesicular stomatitis virus G protein (VSV-G) to pseudotype the virus and to increase their infection efficiency. The viruses containing the rat, mouse or human P2X4 receptor sequence were then used to create a stable astrocytoma cell line. P2X4 receptor-expressing cells were selected with G418 ([…]).
The selection of monoclones for rat and human P2X4 receptors was performed using the limited dilution method by plating the cells at very low cell densities (1 cell clone per well in 96-well plates). Cells were counted, and then several dilutions were made to obtain a concentration of […]. We subsequently added 100 µL of the diluted cell suspension into each well expecting to obtain on average 1 cell per well. After a few days the wells that contained single clones were labeled and transferred into 24 well plates. More than 20 clones were selected for each cell line and characterized in calcium influx assay.
Measurement of Ca^2+ influx in transfected 1321N1 astrocytoma cells
P2X receptor function was determined on the basis of agonist-mediated increases in cytosolic Ca^2+ concentration. The fluorescent Ca^2+chelating dye FLUO-4 was used as an indicator of the relative levels of intracellular Ca^2+ in a 96-well format using a fluorescence imaging plate reader (Novostar, BMG, Germany). Cells were grown to confluence in 96-well black-walled tissue culture plates and loaded with FLUO-4 AM ([…]) in Hank's balanced salt solution (HBSS, containing 10 mM HEPES, pH 7.3, and 1% Pluronic® F127) for 1 h at 23° C. After incubation, the loaded cells were washed with the same buffer to remove extracellular FLUO-4 AM. Compound solutions were prepared in HBSS (containing 20 mM HEPES, pH 7.3) or DMSO depending on their solubility. […] Fluorescence intensity was measured at 520 nm for 30 s at 0.4 s intervals. Buffer or test compounds were injected sequentially into separate wells using the automatic pipetting device. At least three independent experiments were performed in triplicate or duplicate. Antagonists were added 30 min before the addition of agonists. The assays were performed in a final volume of 200 μL. Compounds were tested at 7-8 different concentrations spanning three orders of magnitude of concentrations. Statistical significances were calculated using the unpaired two-tailed t-test.

Compound	IC50 [nM]
Cc1nsc(-c2ccc(N3CCCC3)c(NCC(=O)N3CCc4c(OCC(C)(C)O)cccc43)c2)n1 [Example 24, 1-(4-(2-hydroxy-2-methylpropoxy)indolin-1-yl)-2-((5-(3-methyl-1,2,4-thiadiazol-5-yl)-2-(pyrrolidin-1-yl)phenyl)-amino)ethan-1-one]	0.1 to 19
Cc1noc(-c2ccc(C)c(NCC(=O)N3CCc4c(N5CCC(O)C5)cccc43)c2)n1 (centres unmarked) [Example 25, 1-(4-(3-hydroxy-pyrrolidin-1-yl)indolin-1-yl)-2-((2-methyl-5-(3-methyl-1,2,4-oxadiazol-5-yl)phenyl)amino)ethan-1-one]	0.1 to 19
CCc1nsc(-c2ccc(C)c(NCC(=O)N3CCc4c3cccc4S(=O)(=O)NC)c2)n1 [Example 26, 1-((5-(3-ethyl-1,2,4-thiadiazol-5-yl)-2-methylphenyl)glycyl)-N-methylindoline-N-sulfonamide]	0.1 to 19
CCc1nsc(-c2ccc(C)c(NCC(=O)N3CCc4c(N5CC(C)OC(C)C5)cccc43)c2)n1 (centres unmarked) [Example 27, 1-(4-(2,6-dimethylmorpholino)indolin-1-yl)-2-((5-(3-ethyl-1,2,4-thiadiazol-5-yl)-2-methylphenyl)amino) ethan-1-one]	0.1 to 19
Cc1ccc(-c2ccc(C)c(NCC(=O)N3CCc4c(CO)cccc43)c2)o1 [Example 28, 1-(4-(hydroxymethyl)indolin-1-yl)-2-((2-methyl-5-(5-methylfuran-2-yl)phenyl)amino)ethan-1-one]	0.1 to 19
Cc1nsc(-c2ccc(C)c(NCC(=O)N3CCc4c(C(C)O)cccc43)c2)n1 (centres unmarked) [Example 29, 1-(4-(1-hydroxyethyl)indolin-1-yl)-2-((2-methyl-5-(3-methyl-1,2,4-thiadiazol-5-yl)phenyl)amino)ethan-1-one]	20 to 39
Cc1nsc(-c2ccc(C)c(NCC(=O)N3CCc4c(OCCC(C)(C)O)cccc43)c2)n1 [Example 30, 1-(4-(3-hydroxy-3-methylbutoxy)indolin-1-yl)-2-((2-methyl-5-(3-methyl-1,2,4-thiadiazol-5-yl)phenyl)amino)ethan-1-one]	0.1 to 19
Cc1nsc(-c2ccc(C)c(NCC(=O)N3CCc4c(OCCOCCO)cccc43)c2)n1 [Example 31, 1-(4-(2-(2-hydroxyethoxy)-ethoxy)indolin-1-yl)-2-((2-methyl-5-(3-methyl-1,2,4-thiadiazol-5-yl)phenyl)-amino)ethan-1-one]	20 to 39
Cc1nsc(-c2ccc(C)c(NCC(=O)N3CCc4c(-c5cccnc5)cccc43)c2)n1 [Example 32, 2-((2-methyl-5-(3-methyl-1,2,4-thiadiazol-5-yl)phenyl)amino)-1-(4-(pyridin-3-yl)indolin-1-yl)ethan-1-one]	0.1 to 19
Cc1nsc(-c2ccc(C)c(NCC(=O)N3CCc4c(C(O)C(F)(F)F)cccc43)c2)n1 (centres unmarked) [Example 33, 2-((2-methyl-5-(3-methyl-1,2,4-thiadiazol-5-yl)phenyl)amino)-1-(4-(2,2,2-trifluoro-1-hydroxyethyl)indolin-1-yl)ethan-1-one]	20 to 39
COc1cccc2c1CCN2C(=O)CNc1cc(-c2nc(C)ns2)ccc1F [Example 34, 2-((2-fluoro-5-(3-methyl-1,2,4-thiadiazol-5-yl)phenyl)amino)-1-(4-methoxyindolin-1-yl)ethan-1-one]	20 to 39
CCc1nsc(-c2ccc(C)c(NCC(=O)N3CCc4c3cccc4-n3ccnc3)c2)n1 [Example 35, 1-(4-(1H-imidazol-1-yl)indolin-1-yl)-2-((5-(3-ethyl-1,2,4-thiadiazol-5-yl)-2-methyl-phenyl)amino)ethan-1-one]	20 to 39
Cc1ccc(-c2ccc(C)c(NCC(=O)N3CCc4c3cccc4N3C4CCC3CC(O)C4)c2)o1 (centres unmarked) [Example 36, 1-(4-(3-hydroxy-8-azabicyclo[3.2.1]octan-8-yl)indolin-1-yl)-2-((2-methyl-5-(5-methylfuran-2-yl)phenyl)amino)ethan-1-one]	20 to 39
CC(=O)c1cccc2c1CCN2C(=O)CNc1cc(-c2nc(C)ns2)ccc1C [Example 37, 1-(4-acetylindolin-1-yl)-2-((2-methyl-5-(3-methyl-1,2,4-thiadiazol-5-yl)phenyl)amino)ethan-1-one]	20 to 39
